In patent publication US20250136576A1, “Heterocyclic Compounds and Uses Thereof” (ACEA Therapeutics, Inc., priority 2021, published 2025):

Tested on: KM12-luc cells
Experiment: Cell proliferation and growth inhibition assay (CCK-8) in KM12-luc
Type: cell-based
Settings: KM12-Luc, 72 h, KM12-luc cells, treated with test compounds for 72 hrs, CCK-8 viability; read-out: NTRK IC50 in KM12-luc
Description: MV-4-11 and H1975 cells were obtained from the American Type Culture Collection and KM12-luc cells were obtained from JCRB Cell Bank. All cell lines were maintained at 37° C. with 5% C02, in media supplemented with 10% fetal bovine serum and penicillin (100 units/mL) and streptomycin (100 μg/mL). MV-4-11 cells were maintained in Iscove's Modified Dubecco's Medium, H1975 cells were cultured with RPMI 1640 media, and KM12-luc cells were maintained in Dulbecco's Modification of Eagle's Medium. CCK-8 reagent was obtained from Yeasen. Cell proliferation was assessed by CCK-8 assay (Yeasen) per the manufacturer's instructions. […] Cell viability was assayed by incubating the cells with CCK-8 reagent for 1-4 hrs. Absorbance was measured at OD450 using the Beckman DTX880. The data was calculated using GraphPad Prism version 6.01. The IC50 values were fitted using a non-linear regression model with a sigmoidal dose response.

Going from `CNc1cc(Nc2ncc(OC)c(-c3cn(C)c4ccccc34)n2)ccc1N(C)CCN(C)C` [Compound 275, N^1-(2-(dimethylamino)ethyl)-N^4-(5-methoxy-4-(1-methyl-1H-indol-3-yl)pyrimidin-2-yl)-N^1,N^2-dimethylbenzene-1,2,4-triamine] to `COc1cnc(Nc2ccc(N(C)CCN(C)C)c(NC(C)=O)c2)nc1-c1cn(C)c2ccccc12` [Compound 274, N-(2-((2-(dimethylamino)ethyl)(methyl)amino)-5-(5-methoxy-4-(1-methyl-1H-indol-3-yl)pyrimidin-2-ylamino)phenyl)acetamide], the IC50 falls from 600 nM to 128 nM (4.7-fold). The second is the more potent here.

First: COc1cnc(Nc2ccc(OCCN(C)C)c(NC(C)=O)c2)nc1-c1c[nH]c2c(OC)cccc12 [Compound 287, N-(2-(2-(dimethylamino)ethoxy)-5-((5-methoxy-4-(7-methoxy-1H-indol-3-yl)pyrimidin-2-yl)amino)phenyl)acetamide]
Second: CC(=O)Nc1cc(Nc2ncc(C(F)(F)F)c(-c3cn(C)c4c(F)cccc34)n2)ccc1OCCN(C)C [Compound 352, N-(2-(2-(dimethylamino)ethoxy)-5-((4-(7-fluoro-1-methy-1H-indol-3-yl)-5-(trifluoromethyl)pyrimidin-2-yl)amino)phenyl)acetamide]
The IC50 of the first is 1.9-fold lower: 21.9 nM for the first, 42.1 nM for the second.

`CC(=O)Nc1cc(Nc2nc3c(c(-c4cn(C)c5ccccc45)n2)CCO3)ccc1N(C)CCN(C)C` [Compound 258a, N-(2-((2-(dimethylamino)ethyl)(methyl)amino)-5-((4-(1-methyl-1H-indol-3-yl)-5,6-dihydrofuro[2,3-d]pyrimidin-2-yl)amino)phenyl)acetamide] and `CC(=O)Nc1cc(Nc2nc3c(c(-c4cn(C)c5ccccc45)n2)COCC3)ccc1N(C)CCN(C)C` [Compound 257a, N-(2-((2-(dimethylamino)ethyl)(methyl)amino)-5-((4-(1-methyl-1H-indol-3-yl)-7,8-dihydro-5H-pyrano[4,3-d]pyrimidin-2-yl)amino)phenyl)acetamide] cannot be ordered by IC50: > 1000 nM for the first, > 10000 nM for the second.

Compared with `CC(=O)Nc1cc(Nc2ncc(F)c(-c3cn(C)c4ccc(F)cc34)n2)ccc1N(C)CCN(C)C` [Compound 265, N-(2-((2-(dimethylamino)ethyl)(methyl)amino)-5-((5-fluoro-4-(5-fluoro-1-methyl-1H-indol-3-yl)pyrimidin-2-yl)amino)phenyl)acetamide], `CC(=O)Nc1cc(Nc2ncc(F)c(-c3cn(C)c4ccc(C)cc34)n2)ccc1N(C)CCN(C)C` [Compound 270, N-(5-((4-(1,5-dimethyl-1H-indol-3-yl)-5-fluoropyrimidin-2-yl)amino)-2-((2-(dimethylamino)ethyl)(methyl)amino)phenyl)acetamide] is 3.9-fold higher in IC50: 414 nM for the first, 1600 nM for the second. The first is the more potent here.

Compared with `CCN(CCN(C)C)c1ccc(Nc2ncc(C(F)(F)F)c(-c3c[nH]c4ccc(F)cc34)n2)cc1NC(C)=O` [Compound 323, N-(2-((2-(dimethylamino)ethyl)(ethyl)amino)-5-((4-(5-fluoro-1H-indol-3-yl)-5-(trifluoromethyl)pyrimidin-2-yl)amino)phenyl)acetamide], `CCN(CCN(C)C)c1ccc(Nc2ncc(C(F)(F)F)c(-c3c[nH]c4cc(F)ccc34)n2)cc1NC(C)=O` [Compound 331a, N-(2-((2-(dimethylamino)ethyl)(ethyl)amino)-5-((4-(6-fluoro-1H-indol-3-yl)-5-(trifluoromethyl)pyrimidin-2-yl)amino)phenyl)acetamide] is 1.7-fold higher in IC50: 18.9 nM for the first, 32.3 nM for the second. The first is the more potent here.

Going from `CC(=O)Nc1cc(Nc2ncc(C(F)(F)F)c(-c3c[nH]c4ccc(F)cc34)n2)ccc1N(C)CCN(C)C` [Compound 321, N-(2-((2-(dimethylamino)ethyl)(methyl)amino)-5-((4-(5-fluoro-1H-indol-3-yl)-5-(trifluoromethyl)pyrimidin-2-yl)amino)phenyl)acetamide] to `CCN(CCN(C)C)c1ccc(Nc2ncc(C(F)(F)F)c(-c3c[nH]c4cccc(F)c34)n2)cc1NC(C)=O` [Compound 318, N-(2-((2-(dimethylamino)ethyl)(ethyl)amino)-5-((4-(4-fluoro-1H-indol-3-yl)-5-(trifluoromethyl)pyrimidin-2-yl)amino)phenyl)acetamide], the IC50 rises from 14.8 nM to 43.2 nM (2.9-fold). The first is the more potent here.

First: COc1cccc2c(-c3nc(Nc4ccc(N(C)CCN(C)C)c(NC(C)=O)c4)ncc3Cl)cn(C)c12 [Compound 434, N-(5-(5-chloro-4-(7-methoxy-1-methyl-1H-indol-3-yl)pyrimidin-2-ylamino)-2-((2-(dimethylamino)ethyl)(methyl)amino)phenyl)acetamide]
Second: Cc1cccc2c(-c3nc(Nc4ccc(N(C)CCN(C)C)c(N)c4)ncc3Cl)cn(C)c12 [Compound 428, N^4-(5-chloro-4-(1,7-dimethyl-1H-indol-3-yl)pyrimidin-2-yl)-N^1-(2-(dimethylamino)ethyl)-N^1-methylbenzene-1,2,4-triamine]
The IC50 of the first is 2.1-fold higher: 97.1 nM for the first, 46.4 nM for the second. The second is the more potent here.

`COc1cnc(Nc2ccc(N3CC[C@@H](N(C)C)C3)c(NC(C)=O)c2)nc1-c1cn(C)c2c(F)cccc12` [Compound R-281, (R)—N-(2-(3-(dimethylamino)pyrrolidin-1-yl)-5-((4-(7-fluoro-1-methyl-1H-indol-3-yl)-5-methoxypyrimidin-2-yl)amino)phenyl)acetamide] and `COc1cccc2c(-c3nc(Nc4ccc(N5CC[C@H](N(C)C)C5)c(N)c4)ncc3Cl)cn(C)c12` [Compound S-439, (S)—N^1-(5-chloro-4-(7-methoxy-1-methyl-1H-indol-3-yl)pyrimidin-2-yl)-4-(3-(dimethylamino)pyrrolidin-1-yl)benzene-1,3-diamine] are within 1.5-fold of each other in IC50: 121 nM for the first, 150 nM for the second.

First: CCn1cc(-c2nc(Nc3ccc(N(C)CCN(C)C)c(NC(C)=O)c3)nc3[nH]ccc23)c2cc(F)ccc21 [Compound 246, N-(2-((2-(dimethylamino)ethyl)(methyl)amino)-5-((4-(1-ethyl-5-fluoro-1H-indol-3-yl)-7H-pyrrolo[2,3-d]pyrimidin-2-yl)amino)phenyl)acetamide]
Second: COc1ccc2c(c1)c(-c1nc(Nc3ccc(N(C)CCN(C)C)c(NC(C)=O)c3)ncc1C(F)(F)F)cn2C [Compound 357, N-(2-((2-(dimethylamino)ethyl)(methyl)amino)-5-((4-(5-methoxy-1-methyl-1H-indol-3-yl) 5-(trifluoromethyl)pyrimidin-2-yl)amino)phenyl)acetamide]
The IC50 of the first is 15-fold lower: 69.9 nM for the first, 1080 nM for the second. The first is the more potent here.

`COCCCN(C)c1cc(N2CCN(C)CC2)ccc1C(=O)Nc1c[nH]c2ccc(Cc3cc(F)cc(F)c3)cc12` [Compound 508, N-(5-(3,5-difluorobenzyl)-1H-indol-3-yl)-2-((3-methoxypropyl)(methyl)amino)-4-(4-methylpiperazin-1-yl)benzamide] and `CN1CCN(c2ccc(C(=O)Nc3c[nH]c4cnc(Oc5cc(F)cc(F)c5)nc34)c(NC3CCOCC3)c2)CC1` [Compound 503, N-(2-(3,5-difluorophenoxy)-5H-pyrrolo[3,2-d]pyrimidin-7-yl)-4-(4-methylpiperazin-1-yl)-2-((tetrahydro-2H-pyran-4-yl)amino)benzamide] cannot be ordered by IC50: > 1000 nM for the first, 3640 nM for the second.

Going from `CC(=O)Nc1cc(Nc2ncc(F)c(-c3cn(C)c4cc(F)c(F)cc34)n2)ccc1N(C)CCN(C)C` [Compound 268, N-(5-((4-(5,6-difluoro-1-methyl-1H-indol-3-yl)-5-fluoropyrimidin-2-yl)amino)-2-((2-(dimethylamino)ethyl)(methyl)amino)phenyl)acetamide] to `CC(=O)Nc1cc(Nc2ncc(Cl)c(-c3c[nH]c4ccccc34)n2)ccc1NC(=O)CN(C)C` [Compound 393, N-(2-acetamido-4-((5-chloro-4-(1H-indol-3-yl)pyrimidin-2-yl)amino)phenyl)-2-(dimethylamino)acetamide], the IC50 falls from 784 nM to 23.1 nM (34-fold).

For `CCC(=O)Nc1cccc(Nc2ncc(Cl)c(Nc3ccc(N4CCN(C(C)=O)CC4)cc3OC)n2)c1` [Compound 162, N-(3-((4-((4-(4-acetylpiperazin-1-yl)-2-methoxyphenyl)amino)-5-chloropyrimidin-2-yl)amino)phenyl)propionamide], the IC50 was 129 nM.

Same assay, conditions: KM12-Luc, 72 h, read-out: NTRK IC50 in KM12-luc

Work on `CC(=O)Nc1cc(Nc2nc(-c3cn(C)c4ccccc34)c3cc[nH]c3n2)ccc1N(C)CCN(C)C` [Compound 205a, N-(2-((2-(dimethylamino)ethyl)(methyl)amino)-5-((4-(1-methyl-1H-indol-3-yl)-7H-pyrrolo[2,3-d]pyrimidin-2-yl)amino)phenyl)acetamide] yielded an IC50 of 37 nM.

Same assay, conditions: KM12-luc cells, treated with test compounds for 72 hrs, CCK-8 viability; read-out: NTRK IC50 in KM12-luc

Going from `CC(=O)Nc1cc(Nc2ncc(F)c(-c3c[nH]c4ccc(C)cc34)n2)ccc1N(C)CCN(C)C` [Compound 269, N—N-(2-((2-(dimethylamino)ethyl)(methyl)amino)-5-((5-fluoro-4-(5-methyl-1H-indol-3-yl)pyrimidin-2-yl)amino)phenyl)acetamide] to `CC(=O)Nc1cc(Nc2ncc(Cl)c(-c3c[nH]c4ccccc34)n2)ccc1N(C)CCN(C)C` [Compound 440], the IC50 falls from 112 nM to 7 nM (16-fold). The second is the more potent here.

First: CC(=O)Nc1cc(Nc2ncc(Cl)c(-c3cn(C)c4c(C)cccc34)n2)ccc1N1CC[C@H](N(C)C)C1 [Compound S-432, (S)—N-(5-((5-chloro-4-(1,7-dimethyl-1H-indol-3-yl)pyrimidin-2-yl)amino)-2-(3-(dimethylamino)pyrrolidin-1-yl)phenyl)acetamide]
Second: CC(=O)Nc1cc(Nc2nc(-c3cn(C)nc3C)c3cc[nH]c3n2)ccc1N(C)CCN(C)C [Compound 255a, N-(5-(4-(1,3-dimethyl-1H-pyrazol-4-yl)-7H-pyrrolo[2,3-d]pyrimidin-2-ylamino)-2-((2-(dimethylamino)ethyl)(methyl)amino)phenyl)acetamide]
The IC50 of the first is 11-fold lower: 22.4 nM for the first, 246 nM for the second. The first is the more potent here.
